Experiment [1] is described as follows: Body weight and temperature of Streptococcus pneumoniae-infected mice. Conditions: VT i.v. (500 ng in Figure S2), 46 h p.i. in Figure S2, vs infected, PBS-treated.
Another experiment has as its system abdominal sepsis. Also noted: method as in 3 sources, ref 26 = [26]; PMID 22040774; doi:10.1186/cc10523; 26. Kümpers P Gueler F David S Slyke PV Dumont DJ Park JK Bockmeyer CL Parikh SM Pavenstadt H Haller H The synthetic Tie2 agonist peptide Vasculotide protects against vascular leakage and reduces mort ||| ref 25, 26 = [25]; PMID 21421750; doi:10.1152/ajplung.00459.2010; 25. David S Ghosh CC Kumpers P Shushakova N Van Slyke P Khankin EV Karumanchi SA Dumont D Parikh SM Effects of a synthetic PEG-ylated Tie-2 agonist peptide on endotoxemic lung injury and mortality Am || [26]; PMID 22040774; doi:10.1186/cc10523; 26. Kümpers P Gueler F David S Slyke PV Dumont DJ Park JK Bockmeyer CL Parikh SM Pavenstadt H Haller H The synthetic Tie2 agonist peptide Vasculotide protects against vascular leakage and reduces mort ||| ref 26 (Kümpers et al.). Conditions: cited from earlier work.

Experiment [2] deals with Tie2. Description: Tie2 phosphorylation in mouse primary lung microvascular endothelial cells (phospho-Tie2 ELISA). It counts as cell-based. To be noted: VT 1, 10, 100, 1000 ng/ml, 15 minutes, serum-containing media; phospho-Tie2 and total Tie2 ELISA; n = 3-6. As to the method:
C57BL/6 mouse primary lung microvascular endothelial cells (Cell Biologics, Chicago, IL, USA) were grown in endothelial cell medium with a kit (Cell Biologics) in 20% O2/5% CO2 in a 37 °C humidified chamber and split 1:2 once reaching 90–95% confluency. To examine the activation of Tie2 by VT in mouse primary lung microvascular endothelial cells, 95–100% confluent cells were stimulated with VT (1, 10, 100, and 1000 ng/ml) in serum-containing media for 15 minutes. Human Ang-1 (R&D Systems) was used as a positive control. VT was synthesized, purified, and validated as described before. Cell lysates were collected using lysis buffer recommended in the mouse phospho-Tie-2 enzyme-linked immunosorbent assay (ELISA) kit (R&D Systems); tyrosine-phosphorylated Tie2 and total Tie2 were measured using ELISA kits (mouse phospho-Tie2 and total-Tie2 ELISA kits; R&D Systems). Three to six independent experiments were analyzed.
Saturation binding data (Fig. 1a–c) are presented as mean ± SEM and were calculated using normalized one-site specific binding and nonlinear regression. For the Tie2 phosphorylation analysis (Fig. 1d), one-way analysis of variance (with Dunnett’s post hoc multiple comparisons test) was used to compare treatment groups with the vehicle-treated group. All other experimental data are expressed as mean, mean + SEM, or mean ± SEM. […]
(In general: An ELISA detects its analyte on a solid surface through an enzyme-linked reagent.)

For experiment [3], the system named is Tie2. Also noted: method as in PMID 18939935, PMID 21421750, PMID 22040774, PMID 26046800, PMID 25159192. To be noted: other cell types/tissues; cited from earlier work.
In experiment [4] the test system is human pulmonary microvascular endothelial cells (hPMVEC). As to the kind of experiment: Immunofluorescence staining (VE-cadherin, actin) of human pulmonary microvascular endothelial cells. It is filed as cell-based. Conditions: VT 300 ng/ml. As to the method: Human pulmonary microvascular endothelial cells (hPMVEC; PromoCell, Heidelberg, Germany), used at passages 4–6, were grown to confluence on glass slides, incubated with VT (300 ng/ml) or sterile PBS as a control for 90 minutes and then stimulated with LPS (0.1 μg/ml) from Escherichia coli (Sigma-Aldrich, Steinheim, Germany), PLY (0.25, 0.5, 0.75 μg/ml), or PBS. After 30 minutes, cells were fixed in 3% formalin, and the […] vascular endothelial (VE)-cadherin (1:400, goat antihuman VE-cadherin; Santa Cruz Biotechnology, Santa Cruz, CA, USA; secondary antibody 1:8000, Alexa Fluor 488 F(ab′)2 rabbit antigoat IgG (H + L), Invitrogen, Darmstadt, Germany) and actin fibers (1:2000; phalloidin Alexa 546-labeled; Invitrogen) were stained to evaluate cell morphology. 4′,6-diamidino-2-phenylindole staining (Sigma-Aldrich) was used to visualize cell nuclei. The immunofluorescence of the cells was analyzed by confocal microscopy using an LSM 780 microscope with ZEN 2011 software (objective: Plan Apochromat × 63/1.40 oil; Carl Zeiss Microscopy, Jena, Germany).

Experiment [5] relates to mice with influenza pneumonia. To be noted: cited from earlier work.
In experiment [6] the test system is Streptococcus pneumoniae-infected mice. Description: Lung permeability (HSA BALF/plasma ratio) in Streptococcus pneumoniae-infected mice.
Procedure: For all experiments, female C57BL/6 N mice (8 to 10 weeks old, weighing 18 to 20 g; Charles River Laboratories, Sulzfeld, Germany) were used. Animals were housed under specific pathogen-free conditions under a 12–h/12-h light/dark cycle with free access to food and water.
Mice were anesthetized with ketamine (80 mg/kg) and xylazine (25 mg/kg) and transnasally inoculated with 5 × 10^6 colony-forming units (CFU) of S. pneumoniae (NCTC7978) in 20 μl of sterile PBS as described before [35]. Sham-infected control mice received 20 μl of sterile PBS. After 22 h, 34 h, and 46 h, body weight and rectal temperature were measured, and different dosages of VT (100, 200, or 500 ng in 100 μl of PBS) or PBS were intravenously injected into the tail vein. Twenty-four or forty-eight hours postinfection (p.i.), mice were anesthetized (160 mg/kg ketamine and 75 mg/kg xylazine) and exsanguinated. […] Subsequently, lungs were flushed, and BAL was performed. To determine permeability, HSA (1 mg/75 μl) was intravenously infused 1 h before lung preparation, and the BALF/plasma ratio was calculated as described elsewhere [35]. […] Cytokines from BALF were measured with a multiplex assay (ProcartaPlex; eBioscience), and plasma levels of interleukin (IL)-6 (BD Biosciences) and KC (keratinocyte chemoattractant; R&D Systems) were quantified by ELISA.
A further experiment has as its system murine endotoxemia. Conditions: cited from earlier work.
For a further experiment, the system named is S. pneumoniae. Description: Bacterial burden in BALF and blood of Streptococcus pneumoniae-infected mice. To be noted: VT 500 ng i.v., 24 h and 48 h p.i., n = 8.
The test system of experiment [7] is human immunoglobulin G (IgG) Fc. Description: Tryptophan fluorescence spectroscopy, VT with human IgG Fc (specificity control). It counts as binding. To be noted: recombinant human IgG Fc. As to the method: Binding studies were carried out in 96 well plates (Brand-plates pureGrade reference 781607; BRAND GMBH + CO KG, Wertheim, Germany). Mouse Tie2Fc receptor and human immunoglobulin G (IgG) Fc were obtained from R&D Systems (Minneapolis, MN, USA). Dilutions were prepared in HyClone™ Dulbecco’s PBS (GE Healthcare Life Sciences, Mississauga, ON, Canada). The saturation binding curve was prepared with all ligand dilutions and receptors as 2× concentrations. Equal volumes of ligand and receptor were added to generate a final 1× concentration (500 nM Tie2Fc final concentration). Spectroscopic studies were performed on a SpectraMax M2 fluorometer (Molecular Devices, Sunnyvale, CA, USA). Measurements were taken at an excitation wavelength of 295 nm. Emission scans were set from 360 to 450 nm.

Entries after “also recorded” stand apart in the source; their conditions may differ. Like-named read-outs stand apart in the source and are kept apart here.

Procedure for S. pneumoniae: Mice were anesthetized with ketamine (80 mg/kg) and xylazine (25 mg/kg) and transnasally inoculated with 5 × 10^6 colony-forming units (CFU) of S. pneumoniae (NCTC7978) in 20 μl of sterile PBS as described before [35]. Sham-infected control mice received 20 μl of sterile PBS. After 22 h, 34 h, and 46 h, body weight and rectal temperature were measured, and different dosages of VT (100, 200, or 500 ng in 100 μl of PBS) or PBS were intravenously injected into the tail vein. Twenty-four or forty-eight hours postinfection (p.i.), mice were anesthetized (160 mg/kg ketamine and 75 mg/kg xylazine) and exsanguinated. […] Subsequently, lungs were flushed, and BAL was performed.
S. pneumoniae (S. pn.) infected mice (5x106
CFU/mouse) were intravenously (i.v.) treated with Vasculotide (VT; 500 ng) or PBS 22 h, 34
h and 46 h post infection (p.i.). The bacterial burden was quantified in bronchoalveolar lavage
fluid (BALF) and in blood 24 h or 48 h p.i.

As to Vasculotide [VT], in experiment [1], the body weight result is “did not influence; also recorded: not affected”. In addition, in experiment [1] (rectal), the body temperature result is on record as “did not influence; also recorded: not affected”. In addition, the “protective effect in murine endotoxemia and abdominal sepsis (sepsis part)” value in the experiment with abdominal sepsis (abdominal sepsis) is “protective effect”. Further, the “barrier disruption in experimental sepsis” value with abdominal sepsis is given as “diminish barrier disruption”. In the experiment on abdominal sepsis (treatment started 2 h after cecal ligation and puncture, ref 26 (Kümpers et al.)), the “local and systemic inflammatory markers after abdominal sepsis” value is “reductions in local and systemic inflammatory markers”. In addition, the Tie2 phosphorylation entry in the experiment with Tie2 [2] is “resulted in Tie2 phosphorylation in a dose-dependent manner; also recorded: dose-dependent phosphorylation of Tie2”. Besides, the Tie2 phosphorylation entry in the experiment on Tie2 [3] is “confirms findings of other studies”. The “monolayer stabilization (gap formation, stress fibers, cell loss) after LPS or PLY” value in [4] (90 minutes pretreatment, LPS 0.1 μg/ml or PLY 0.25, 0.5, 0.75 μg/ml for 30 minutes, three independent experiments) is “stabilized cell monolayers, protected from gap formation, and reduced stress fibers as well as cell loss; also recorded: stabilized the cell monolayer, avoided gap formation, and reduced stress fibers and cell loss from culture dishes”. In addition, the “effect on unstimulated hPMVEC monolayer” value in [4] (90 minutes, no LPS or PLY) was “no effect of VT pretreatment was observed; also recorded: intact monolayers with tight intercellular contacts and thin actin fibers”. Besides, the “survival of mice with influenza pneumonia” value in [5] was “increase the survival”. For the same substance, in experiment [5] (ref 28 (Sugiyama et al.)), the “leukocyte influx into the lung in influenza pneumonia” value is listed as “without affecting leukocyte influx into the lung”, the “pulmonary barrier function in influenza pneumonia” value is “protective effect of VT on pulmonary barrier function” and the “virus replication in influenza pneumonia” value is reported as “without affecting leukocyte influx into the lung or repressing virus replication”. Besides, the “lung permeability (HSA BALF/plasma ratio), 48 h p.i., second set” value in experiment [6] (VT 500 ng i.v. at 22, 34, 46 h p.i., Fig. 4b, n = 8, vs PBS) is listed as “decreased pulmonary barrier disruption; also recorded: Lung permeability was decreased”. Besides, the “lung hyperpermeability (HSA BALF/plasma ratio), 48 h p.i.” value in experiment [6] (VT 500 ng i.v. at 22, 34, 46 h p.i., dose-finding experiment (Fig. 3b), n = 5-7, vs PBS) is on record as “significant permeability reduction; also recorded: significantly reduced lung hyperpermeability”. The “lung permeability (HSA BALF/plasma ratio), 24 h p.i., second set” value in [6] (VT 500 ng i.v. at 22 h p.i., Fig. 4a, n = 8, vs PBS) is “decreased pulmonary barrier disruption; also recorded: Lung permeability was decreased”. Further, the “lung hyperpermeability (HSA BALF/plasma ratio), 24 h p.i.” value in experiment [6] (VT 500 ng i.v. at 22 h p.i., dose-finding experiment (Fig. 3a), n = 5-7, vs PBS) is “significant permeability reduction; also recorded: significantly reduced lung hyperpermeability”. Also, the “lung hyperpermeability, dose dependence” value in experiment [6] (VT 100, 200, 500 ng i.v. from 22 h p.i., 24 h and 48 h p.i.) was “reduced lung hyperpermeability in a dose-dependent fashion; also recorded: quickly and effectively reduce pulmonary hyperpermeability in a dose-dependent manner”. Further, the “endotoxemia-induced lung vascular leakage” value in the experiment on murine endotoxemia is “prevent endotoxemia-induced lung vascular leakage”. Besides, in the experiment on murine endotoxemia (endotoxemia), the “protective effect in murine endotoxemia” value is recorded as “protective effect”. Besides, the “bacterial burden in BALF” value in the experiment with S. pneumoniae (BALF) is reported as “did not affect; also recorded: not significantly reduced”. In the experiment on S. pneumoniae (blood), the “bacterial burden in blood” value was “did not affect; also recorded: not significantly reduced”. For the same substance, the “fluorescence intensity / binding with human IgG Fc” value in experiment [7] is “No saturation of binding is observed; also recorded: no dose-dependent increase in fluorescence intensity”.

Values taken from article PMC5683375, “Vasculotide reduces pulmonary hyperpermeability in experimental pneumococcal pneumonia” (Critical Care, 2017).
